Experimental data published in patent US7713994B2 (Wyeth LLC, priority 2005, dated 2010).
Read-outs that look alike come from different tables or passages of the source.

Columns and labels:
cyclin D1/cdk 4 enzyme = target: T1, cyclin D1/cdk 4 enzyme (Homo sapiens, UniProt P11802); test: CDK4 ELISA kinase assay (phospho-Rb ser 795 detection); format: biochemical; conditions: In Vitro Enzyme Assays, 200 μM ATP, read-out: CDK4 IC50
T1 construct: made in house; host or cells: Sf9 insect cells, recombinant baculovirus
T1 sequence (P11802 whole entry, species assumed): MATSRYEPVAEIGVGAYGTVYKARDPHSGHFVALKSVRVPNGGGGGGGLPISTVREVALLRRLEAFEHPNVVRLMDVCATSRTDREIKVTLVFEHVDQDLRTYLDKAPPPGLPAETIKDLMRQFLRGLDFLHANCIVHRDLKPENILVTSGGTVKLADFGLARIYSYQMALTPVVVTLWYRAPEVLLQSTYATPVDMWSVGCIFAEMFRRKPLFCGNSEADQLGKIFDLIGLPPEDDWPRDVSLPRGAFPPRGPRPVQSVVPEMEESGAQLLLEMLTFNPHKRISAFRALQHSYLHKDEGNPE
T1 sequence (P24385 whole entry partner, species assumed): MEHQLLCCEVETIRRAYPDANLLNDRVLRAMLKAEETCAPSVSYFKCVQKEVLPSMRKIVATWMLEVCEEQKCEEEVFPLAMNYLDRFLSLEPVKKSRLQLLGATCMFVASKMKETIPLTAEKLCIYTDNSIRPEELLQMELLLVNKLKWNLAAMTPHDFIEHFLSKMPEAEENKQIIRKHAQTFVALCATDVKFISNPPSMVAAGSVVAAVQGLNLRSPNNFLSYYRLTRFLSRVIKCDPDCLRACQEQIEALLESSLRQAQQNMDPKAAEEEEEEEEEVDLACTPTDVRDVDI
Method in brief: (§1)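 Partially purified Sf9-expressed cyclin D1/CDK4, cyclin E/CDK2 or cyclin B/CDK1 phosphorylated plate-bound GST-Rb C-terminal fragment with 200 μM ATP at 30° C for 1 h.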

cyclin E/CDK2 enzyme = target: T2, cyclin E/CDK2 enzyme (Homo sapiens, UniProt P24941); test: CDK2 ELISA kinase assay (phospho-Rb ser 795 detection); format: biochemical; conditions: In Vitro Enzyme Assays, read-out: CDK2 IC50
T2 construct: made in house; host or cells: Sf9 insect cells, recombinant baculovirus
Method in brief: as §1

cyclin B/CDK1 enzyme = target: T3, cyclin B/CDK1 enzyme (Homo sapiens, UniProt P06493); test: CDK1 ELISA kinase assay (phospho-Rb ser 795 detection); format: biochemical; conditions: In Vitro Enzyme Assays, read-out: CDK1 IC50
T3 construct: purchased New England BioLabs; host or cells: Sf9 insect cells, recombinant baculovirus
T3 sequence (P06493 whole entry): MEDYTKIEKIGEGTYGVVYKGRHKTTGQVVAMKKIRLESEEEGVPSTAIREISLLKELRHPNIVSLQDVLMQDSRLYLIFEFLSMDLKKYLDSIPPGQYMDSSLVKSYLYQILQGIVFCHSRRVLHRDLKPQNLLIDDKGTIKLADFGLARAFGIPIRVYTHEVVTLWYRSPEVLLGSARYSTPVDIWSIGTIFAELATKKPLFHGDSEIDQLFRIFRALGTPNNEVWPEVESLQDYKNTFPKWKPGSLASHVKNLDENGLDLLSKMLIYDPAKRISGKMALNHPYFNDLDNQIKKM
T3 sequence (P14635 whole entry partner): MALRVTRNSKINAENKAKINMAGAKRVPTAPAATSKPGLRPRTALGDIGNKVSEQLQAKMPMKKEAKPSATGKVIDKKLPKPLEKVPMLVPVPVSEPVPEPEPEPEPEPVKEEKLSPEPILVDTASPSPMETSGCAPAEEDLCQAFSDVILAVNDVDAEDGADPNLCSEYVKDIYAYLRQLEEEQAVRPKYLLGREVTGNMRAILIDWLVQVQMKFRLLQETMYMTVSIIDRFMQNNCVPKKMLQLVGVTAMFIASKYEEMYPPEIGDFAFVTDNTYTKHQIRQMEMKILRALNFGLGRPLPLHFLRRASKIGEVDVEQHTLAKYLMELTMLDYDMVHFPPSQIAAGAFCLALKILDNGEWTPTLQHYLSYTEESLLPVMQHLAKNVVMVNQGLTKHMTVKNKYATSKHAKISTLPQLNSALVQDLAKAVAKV
Method in brief: as §1

BT474 = test: Cytotoxicity assay (SRB), BT474; format: cell-based; conditions: Homo sapiens, BT-474, 144 h, read-out: In Vitro Cellular Activity IC50 BT474
Method in brief: (§2)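 Percentage survival is derived from SRB absorbance (540 nm) versus untreated cells. Exposures were 3 days, except 6 days for BT474, at 37 °C and 7% CO2.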

HCT-116 = test: Cytotoxicity assay (SRB), HCT-116; format: cell-based; conditions: Homo sapiens, HCT-116, 72 h, read-out: In Vitro Cellular Activity IC50 HCT116
Method in brief: as §2

LoVo = test: Cytotoxicity assay (SRB), LoVo; format: cell-based; conditions: Homo sapiens, LoVo, 72 h, read-out: In Vitro Cellular Activity IC50 LOVO
Method in brief: as §2

MCF-7 = test: Cytotoxicity assay (SRB), MCF-7; format: cell-based; conditions: Homo sapiens, MCF7, 72 h, read-out: In Vitro Cellular Activity IC50 MCF-7
Method in brief: as §2

SMILES | IC50 (cyclin D1/cdk 4 enzyme) [µM] | IC50 (cyclin E/CDK2 enzyme) [µM] | IC50 (cyclin B/CDK1 enzyme) [µM] | IC50 (BT474; BT474 cells, SRB, 6 days) [µM] | IC50 (HCT-116; HCT116 cells, SRB, three days) [µM] | IC50 (LoVo; LoVo cells, SRB, three days) [µM] | IC50 (MCF-7; MCF-7 cells, SRB, three days) [µM] | melting point | IC50 (BT474) [µM] | IC50 (HCT-116) [µM] | IC50 (LoVo) [µM] | IC50 (MCF-7) [µM] | IC50 (BT474; BT474 cells, 6 days, SRB) [µM] | IC50 (LoVo; LoVo cells, 3 days, SRB) [µM]
CC1CN(C)[C@H](C)CN1c1ccc(N/C=C2\C(=O)NC(=O)c3ccc(Br)cc32)cc1 (stereo in doubt) [Example 238, (4Z)-6-Bromo-4-[({4-[(2S,5R)-2,4,5-trimethylpiperazin-1-yl]phenyl}amino)methylene]-isoquinoline-1,3(2H,4H)-dione] | 4.8 | > 50 | > 50 | 7.4 | 6.7 | 4.3 | 1 | 184 to 185 °C |  |  |  |  |  | 
Nc1cccc(CN/C=C2\C(=O)NC(=O)c3ccc(Br)cc32)c1 [Example 52, (4Z)-4-{[(3-Aminobenzyl)amino]methylene}-6-bromoisoquinoline-1,3(2H,4H)-dione] | 24.3 | 4.5 | > 50 | 41 | 40 | > 50 | > 50 | 214 to 215 °C |  |  |  |  |  | 
CC(=O)Oc1ccc(CN/C=C2\C(=O)NC(=O)c3ccc(Br)cc32)cc1OC(C)=O [Example 54, 2-(Acetyloxy)-4-({[(Z)-(6-bromo-1,3-dioxo-2,3-dihydroisoquinolin-4(1H)-ylidene)methyl]-amino}methyl)phenyl acetate] | 0.16 | > 50 | > 50 | 6.5 | 6.4 | 5.9 | 9.2 | 239 to 240 °C |  |  |  |  |  | 
NS(=O)(=O)c1ccc(CN/C=C2\C(=O)NC(=O)c3ccc(Br)cc32)cc1 [Example 56, 4-({[(Z)-(6-Bromo-1,3-dioxo-2,3-dihydroisoquinolin-4(1H)-ylidene)methyl]amino}methyl)benzenesulfonamide] | 0.48 | 1.3 | 16.2 | 23 | 28 | 30 | 27 | 273 to 274 °C |  |  |  |  |  | 
O=C1NC(=O)c2ccc(Br)cc2/C1=C/Nc1ccc(CN2CCCC2)cc1 [Example 59, (4Z)-6-Bromo-4-({[4-(pyrrolidin-1-ylmethyl)phenyl]amino}methylene)isoquinoline-1,3(2H,4H)-dione] | 0.23 | 25.2 | > 50 |  |  |  |  | 165 to 166 °C | 6.3 | 4.7 | 6.1 | 4.13 |  | 
O=C1NC(=O)c2ccc(Br)cc2/C1=C/NCc1cc(O)cc(O)c1 [Example 64] | 0.015 | 0.62 | 16.5 | 28 | > 50 | > 50 | > 50 | 318 to 319 °C |  |  |  |  |  | 
CC(=O)Oc1cc(CNC=C2C(=O)NC(=O)c3ccc(Br)cc32)cc(OC(C)=O)c1 [Example 69, Acetic acid 3-acetoxy-5-{[(6-bromo-1,3-dioxo-2,3-dihydro-1H-isoquinolin-4-ylidenemethyl)-amino]-methyl}-phenyl ester] | 0.12 | 44.5 | > 50 | 5.6 | 6.5 | 5.2 | 8.2 | 257 to 258 °C |  |  |  |  |  | 
CN1CCN(c2ccc(N/C=C3\C(=O)NC(=O)c4ccc(F)cc43)cc2)CC1 [Example 70, (4Z)-6-Fluoro-4-({[4-(4-methylPiperzin-1-yl)phenyl]amino}methylene)isoquinoline-1,3(2H,4H)-dione] | 9.4 | > 50 | 16.9 | 3.23 | 2.55 | 5.18 | 4.06 | 242 to 243 °C |  |  |  |  |  | 
CN(C)Cc1ccc(N/C=C2\C(=O)NC(=O)c3ccc(Br)cc32)cc1 [Example 73] | 0.83 | 7.7 | 43.5 | 18 | 10 | 13 | 9.3 | 159 to 160 °C |  |  |  |  |  | 
COC(=O)Oc1ccc(CN/C=C2\C(=O)NC(=O)c3ccc(Br)cc32)cc1OC(=O)OC [Example 76, Carbonic acid 5-{[(6-bromo-1,3-dioxo-2,3-dihydro-1H-isoquinolin-4-ylidenemethyl)-amino]-methyl}-2-methoxycarbonyloxy-phenyl ester methyl ester] | 0.39 | > 50 | 40.7 | 5.5 | 5 | 5.9 | 9.1 | 239 to 240 °C |  |  |  |  |  | 
COc1cc(CN/C=C2\C(=O)NC(=O)c3ccc(Br)cc32)cc(OC(C)=O)c1OC [Example 77, 5-({[(Z)-(6-Bromo-1,3-dioxo-2,3-dihydroisoquinolin-4(1H)-ylidene)methyl]amino}methyl)-2,3-dimethoxyphenyl acetate] | 0.38 | > 50 | > 50 | 7.7 | 4.8 | 8.4 | 14.4 | 244 to 245 °C |  |  |  |  |  | 
COc1cc(CN/C=C2\C(=O)NC(=O)c3ccc(-c4ccsc4)cc32)cc(O)c1OC [Example 85] | 0.001 | > 50 | > 50 | 3.5 | 3.7 | 2.7 | 8.4 | 255 to 256 °C |  |  |  |  |  | 
COc1cc(CN/C=C2\C(=O)NC(=O)c3ccc(-c4ccoc4)cc32)cc(O)c1OC [Example 87] | 0.0008 | 8.1 | 1.2 | 1.3 | 4.2 | 4.2 | 4.1 | 263 to 264 °C |  |  |  |  |  | 
COc1cc(CN/C=C2\C(=O)NC(=O)c3ccc(I)cc32)cc(O)c1OC [Example 89, (4Z)-6-Iodo-4-{[(3-hydroxy-4,5-dimethoxybenzyl)amino)methylene}isoquinoline-1,3(2H,4H)-dione] | 0.002 | 3.3 | > 50 | 5.9 | 3.7 | 7.8 | 20 | 265 to 266 °C |  |  |  |  |  | 
COc1ccc2c(c1)/C(=C/NCc1ccc(OC)c(O)c1)C(=O)NC2=O [Example 90, 4-[(3-Hydroxy-4-methoxy-benzylamino)-methylene]-6-methoxy-4H-isoquinoline-1,3-dione] | 0.031 | 2.9 | 22.3 | 6.9 | 9.8 | 24 | 12 | 240 to 242 °C (dec.) |  |  |  |  |  | 
O=C1NC(=O)c2ccc(Br)cc2/C1=C/c1cc(Br)c(O)c(Br)c1 [Example 94, (4Z)-6-Bromo-4-(3,5-dibromo-4-hydroxybenzylidene)isoquinoline-1,3(2H,4H)-dione] | 9.4 | > 50 | > 50 | 2 | 3.4 | 6.4 | 2.3 | 167 to 168 °C |  |  |  |  |  | 
O=Cc1sccc1-c1ccc2c(c1)/C(=C/Nc1ccc(CN3CCCCC3)cc1)C(=O)NC2=O [Example 97] | 1 | 6.7 | > 50 | 3.1 | 1.5 | 1.9 | 2.8 | 224 to 225 °C |  |  |  |  |  | 
Nc1ccc(CN/C=C2\C(=O)NC(=O)c3ccc(Br)cc32)cc1O [Example 227, (4Z)-4-{[(4-Amino-3-hydroxybenzyl)amino]methylene}-6-bromoisoquinoline-1,3(2H,4H)-dione] | 0.08 | 6.7 | > 50 |  | 44 | 37 | > 50 | 245 to 246 °C |  |  |  |  |  | 
CN1CCN(c2ccc(N/C=C3\C(=O)NC(=O)c4ccc(-c5ccoc5)cc43)nc2)CC1 [Example 443, (4Z)-6-(3-Furyl)-4-({[5-(4-methylpiperazin-1-yl)pyridin-2-yl]amino}methylene)isoquinoline-1,3(2H,4H)-dione] | 0.13 | > 50 | > 50 |  |  |  |  | 262 to 263 °C |  |  |  |  | 0.65 | 0.85
